This note sets out measurements from ChEMBL document CHEMBL1123713, “Synthesis and calcium channel antagonist activity of dialkyl 4- (dihydropyridinyl)-1,4-dihydro-2,6-dimethyl-3,5-pyridinecarboxylates” (J Med Chem, 1987).

Data set [1] concerns the target Muscarinic acetylcholine receptor (Homo sapiens) (UniProt P20309+P08173+P11229+P08172+P08912). The settings on record: Cavia porcellus.
Description: Inhibition of muscarinic receptor mediated [Ca2+] dependent contraction of guinea pig ileal longitudinal smooth muscle.
For data set [2], the target named is Voltage-gated L-type calcium channel (Homo sapiens, UniProt Q13936+Q13698+Q01668+O60840). The data set is described as follows: Negative log antagonist concentration causing 50% displacement of [3H]nifedipine from guinea pig ileal smooth muscle membrane. Type of data set: tissue-based, Cavia porcellus, Muscle tissue. To be noted: target entry is the homologue from another species.

The species entered for the next data set is Cavia porcellus. Put plainly: Negative logarithm antagonist concentration causing 50% inhibition of tonic CD response in the guinea pig ileal longitudinal smooth muscle preparation. The format is functional, Muscle tissue.
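For ID50 in this document: blockade of Ca2+-dependent contraction driven by muscarinic receptors in longitudinal smooth muscle strips of guinea pig ileum.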

The compound `CC1=NC(C)=C(C(=O)OCC(C)C)C(C2=CCN(C(=O)OC(C)(C)C)C=C2)/C1=C(\O)OCC(C)C` (stereo not given) returned an ID50 in data set [1] of 2030 nM.

With `CCOC(=O)C1=C(C)N=C(C)/C(=C(/O)OCC)C1C1=CC=CN(C(=O)OC(C)(C)C)C1` (stereo not given), the ID50 in data set [1] came out at 672 nM.

The compound `COC(=O)N1C=CC(C2C(C(=O)OC(C)C)=C(C)N=C(C)/C2=C(/O)OC(C)C)=CC1` (stereo not given) gave an ID50 in data set [1] of 1010 nM.

In turn, `CC1=NC(C)=C(C(=O)OC(C)C)C(C2=CC=CN(C(=O)OC(C)(C)C)C2)/C1=C(\O)OC(C)C` (stereo not given) displayed an ID50 in data set [1] of 114 nM.

In turn, `CCOC(=O)C1=C(C)N=C(C)/C(=C(/O)OCC)C1C1=CC=CN(C(=O)OC)C1` (stereo not given) displayed an ID50 in data set [1] of 180 nM.

The compound `CO/C(O)=C1\C(C)=NC(C)=C(C(=O)OC(C)C)C1C1=CC=CN(C(=O)OC(C)(C)C)C1` (stereo not given) yielded an ID50 in data set [1] of 237 nM.

Consider `COC(=O)N1C=CC=C(C2C(C(=O)OC(C)C)=C(C)N=C(C)/C2=C(/O)OC)C1` (stereo not given), for which, in data set [1], the ID50 is 158 nM.

Consider `CO/C(O)=C1\C(C)=NC(C)=C(C(=O)OCC(C)C)C1C1=CC=CN(C(=O)OC(C)(C)C)C1` (stereo not given), for which the ID50 in data set [1] stood at 128 nM.

Consider `COC(=O)C1=C(C)NC(C)=C(C(=O)OC)C1c1ccccc1[N+](=O)[O-]` [NIFEDIPINE], for which the “-Log KD50” value in data set [2] came to 9.08.

Turning to `COC(=O)N1C=CC=C(C2C(C(=O)OC(C)C)=C(C)N=C(C)/C2=C(/O)OC(C)C)C1` (stereo not given), the ID50 in data set [1] is 131 nM.

With `COC(=O)N1C=CC=C(C2C(C#N)=C(C)NC(C)=C2C#N)C1`, the ID50 in data set [1] stood at 33900 nM.

Turning to `COC(=O)N1C=CC=C(C2C(C(=O)OCC(C)C)=C(C)N=C(C)/C2=C(/O)OCC(C)C)C1` (stereo not given), in data set [1], the ID50 was determined as 771 nM.

Turning to `CC1=NC(C)=C(C(=O)OCC(C)C)C(C2=CC=CN(C(=O)Oc3ccccc3)C2)/C1=C(\O)OCC(C)C` (stereo not given), in data set [1], the ID50 was found to be 6460 nM.

In data set [1], `COC(=O)N1C=CC=C(C2C(C(=O)OCC(C)C)=C(C)N=C(C)/C2=C(/O)OC)C1` (stereo not given) showed an ID50 of 31 nM.

`CC1=NC(C)=C(C(=O)OCC(C)C)C(C2=CCN(C(=O)Oc3ccccc3)C=C2)/C1=C(\O)OCC(C)C` (stereo not given) showed an ID50 in data set [1] of 510 nM.

`CO/C(O)=C1\C(C)=NC(C)=C(C(=O)OC(C)C)C1C1=CC=CN(C(=O)Oc2ccccc2)C1` (stereo not given) showed an ID50 in data set [1] of 900 nM.

As to `CO/C(O)=C1\C(C)=NC(C)=C(C(=O)OCC(C)C)C1C1=CCN(C(=O)Oc2ccccc2)C=C1` (stereo not given), in data set [1], the ID50 stood at 81000 nM.

Consider `CCOC(=O)C1=C(C)N=C(C)/C(=C(/O)OCC)C1C1=CC=CN(C(=O)Oc2ccccc2)C1` (stereo not given), for which, in data set [1], the ID50 stood at 865 nM.

For `CC1=NC(C)=C(C(=O)OCC(C)C)C(C2=CC=CN(C(=O)OC(C)(C)C)C2)/C1=C(\O)OCC(C)C` (stereo not given), in data set [1], the ID50 came to 3420 nM.

Regarding `CO/C(O)=C1\C(C)=NC(C)=C(C(=O)OCC(C)C)C1C1=CCN(C(=O)OC(C)(C)C)C=C1` (stereo not given), the ID50 in data set [1] turned out to be 1180 nM.

In turn, `COC(=O)N1C=CC(C2C(C(=O)OCC(C)C)=C(C)N=C(C)/C2=C(/O)OC)=CC1` (stereo not given) yielded an ID50 in data set [1] of 1760 nM.

Consider `COC(=O)N1C=CC(C2C(C#N)=C(C)NC(C)=C2C#N)=CC1`, for which the ID50 in data set [1] turned out to be 67500 nM.

In data set [1], `COC(=O)N1C=CC=C(C2C(C#N)=C(C)N=C(C)/C2=C(/O)OC)C1` (stereo not given) showed an ID50 of 51600 nM.

As for `CO/C(O)=C1\C(C)=NC(C)=C(C(=O)OCC(C)C)C1C1=CC=CN(C(=O)Oc2ccccc2)C1` (stereo not given), the ID50 in data set [1] amounted to 45 nM.

As to `COC(=O)C1=C(C)N=C(C)/C(=C(/O)OC)C1C1=CC=CN(C(=O)OC(C)(C)C)C1` (stereo not given), the ID50 in data set [1] was determined as 5770 nM. Besides, the “-Log ID50” value in the data set filed under Cavia porcellus is on record as 5.24.

For the compound `COC(=O)C1=C(C)N=C(C)/C(=C(/O)OC)C1C1=CC=CN(C(=O)OC)C1` (stereo not given), in data set [1], the ID50 was determined as 589 nM. In addition, in the data set listed under Cavia porcellus, the “-Log ID50” value is given as 6.23.

For the compound `COC(=O)N1C=CC(C2C(C(=O)OCC(C)C)=C(C)N=C(C)/C2=C(/O)OCC(C)C)=CC1` (stereo not given), the ID50 in data set [1] is 1720 nM.

`COC(=O)C1=C(C)N=C(C)/C(=C(/O)OC)C1C1=CC=CN(C(=O)Oc2ccccc2)C1` (stereo not given): the ID50 in data set [1] was determined as 3690 nM. The “-Log ID50” value in the data set listed under Cavia porcellus stood at 5.43.

`CCOC(=O)C1=C(C)N=C(C)/C(=C(/O)OCC)C1C1=CCN(C(=O)OC)C=C1` (stereo not given) showed an ID50 in data set [1] of 2430 nM.

`COC(=O)C1=C(C)N=C(C)/C(=C(/O)OC)C1C1=CCN(C(=O)OC)C=C1` (stereo not given) yielded an ID50 in data set [1] of 7470 nM.

Regarding `CC1=NC(C)=C(C(=O)OC(C)C)C(C2=CC=CN(C(=O)Oc3ccccc3)C2)/C1=C(\O)OC(C)C` (stereo not given), the ID50 in data set [1] was 1670 nM. For the same compound, the “-Log ID50” value in the data set filed under Cavia porcellus is 5.78.
